Test results taken from patent publication US20090203661A1, “Betulinic acid, derivatives and analogs thereof and uses therefor” (priority 2006, published 2009).
Like-named read-outs stand apart in the source and are kept apart here.

Key:
PPARγ-GAL4 chimera = PPARγ-GAL4 chimera activation (FIG. 13C); format: cell-based
HT-29 cells = test: KLF4 mRNA (RT-PCR) in HT-29 cells; format: cell-based, human; conditions: for KLF4 mRNA levels: HT-29; for effect of T007 on induction of KLF4 mRNA: HT-29, cotreatment with T007
Protocol: SW480 and HT29 colon cancer cells were treated either with vehicle (DMSO) or indicated compounds and after 24 hr total RNA was extracted using RNeasy Mini kit (Qiagen, Inc., Valencia, Calif.). RNA concentration was measured by UV 260:280 nm absorption ratio and 2 μg RNA was used to synthesize cDNA using Reverse Transcription System (Promega). PCR conditions were as follows: initial denaturation at 94° C. (1 min) followed by 28 cycles of denaturation for 30 s at 94° C., annealing for 60 s at 55° C. and extension at 72° C. for 60 s and a final extension step at 72° C. for 5 min. The mRNA levels were normalized using GAPDH as an internal housekeeping gene. Primers obtained from IDT and used for amplification are as follows: KLF4 (sense 5′-CTATGGCAGGGAGTCCGCTCC-3′ (SEQ ID NO: 1); antisense 5′-ATGACCGACGGGCTGCCGTAC-3′ (SEQ ID NO: 2)) and GAPDH (sense 5′-ACGGATTTGGTCGTATTGGGCG-3′ (SEQ ID NO: 3); antisense 5′-CTCCTGGAAGATGGTGATGG-3′ (SEQ ID NO: 4). PCR products were electrophoresed on 1% agarose gels containing ethidium bromide and visualized under UV transillumination.

HCT-15 cells = test: Caveolin-1 expression (Western blot) in HCT-15 cells; format: cell-based, human; conditions: HCT-15, cotreatment with T007
Protocol: SW480, HT-29, HCT-15 and Panc-28 (3×10^5) colon cancer cells were seeded in 6-well tissue culture plates in DMEM/Ham's F-12 medium containing 2.5% charcoal-stripped FBS. Protein is extracted from the cells treated either with vehicle or indicated compounds suspended for 24 hr except for caveolin-1 protein which was done for 72 hr. Samples were extracted in high salt buffer [50 mmol/L HEPES, 500 mmol/L NaCl, 1.5 mmol/L MgCl2, 1 mmol/L EGTA, 10% glycerol, and 1% Triton X-100 (pH 7.5), and 5 μL/mL protease inhibitor cocktail (Sigma-Aldrich)]. Samples were incubated at 100° C. for 2 min, separated on either 10% or 12% SDS-PAGE gels and then transferred to polyvinylidene difluoride membrane (PVDF; Bio-Rad, Hercules, Calif.). The PVDF membrane was blocked in 5% TBST-Blotto (10 mM Tris HCl, 150 mM NaCl, pH 8.0, 0.05% Triton X-100, and 5% nonfat dry milk) for about 30 min and was then incubated in fresh 5% TBST-Blotto with 1:1000 for caveolin-1 (Santa Cruz Biotechnology, Santa Cruz, Calif.), 1:1000 for p21 (BD Pharmingen, Frank lakes, NJ) and 1:10000 for β-actin (Sigma) primary antibody overnight with gentle shaking at 4° C. After washing with TBST for 10 min, the membrane was incubated with respective secondary antibody (1:5000) (Santa cruz, Calif.) in 5% TBST-Blotto for 3 hr. […]

PPARγ [1] = test: PPARγ transactivation (PPARγ-GAL4/pGAL4, PPRE3-luc) in SW480 cells; format: cell-based; conditions: for transactivation, PPARγ-GAL4/pGAL4 and PPRE3-luc: SW480, 2.5-10 μM; for effect of PPARγ antagonist T007 on induced activities: SW480, cotreatment with T007
Protocol: (§1) Cells were seeded onto the 12-well plates and 0.4 μg of GAL4-Luc, 0.04 μg of β-GAL, 0.04 μg of GAL4DBD-PPARγ, and 0.4 μg of p21-luc(FL) containing −2325 to +8 insert, 0.4 μg of p21-luc (−124) containing −124 to +8 insert and 0.4 μg of p21-LUC (−60) containing −60 to +8 insert were transfected using LipofectAMINE reagent (Invitrogen) following the manufacturer's protocol. Cells were treated either with vehicle or respective compounds suspended in complete medium after 6 hr of transfection. Cell lysate is extracted after 20-22 hr by adding 100 μl of 1× reporter lysis buffer per well and 30 μl of this extract is used to quantitate the luciferase activity using Lumicount (Perkin-Elmer Life and Analytical Sciences). Each experiment is done in triplicate and the results are normalized to the β-GAL activity.

SW480 cells = test: Cell proliferation assay, SW480 cells; format: cell-based, human; conditions: read-out: IC50 values, inhibition of growth
Protocol: SW480, HT-29 and HCT-15 human colon cancer cells were provided by Dr. Stan Hamilton (M. D. Anderson Cancer Center (Houston, Tex.). Panc-28 human pancreatic cancer cells and 3T3-L1 pre-adipocytes were obtained from American Type Culture Collection (Manassas, Va.). SW480, HT-29 and Panc-28 cells were maintained in Dulbecco's modified/Ham's F-12 (Sigma-Aldrich, St Louis, Mo.) with phenol red supplemented with 0.22% sodium bicarbonate, 0.011% sodium pyruvate, 5% fetal bovine serum, and 10 mL/L 100× antibiotic antimycotic solution (Sigma). HCT-15 cells were maintained in RPMI 1640 (Sigma) supplemented with 0.22% sodium bicarbonate, 0.011% sodium pyruvate, 0.45% glucose, 0.24% HEPES, 10% fetal bovine serum, and 10 mL/L of 100× antibiotic antimycotic solution (Sigma). Cells were maintained at 37° C. in the presence of 5% CO2.
This assay is performed in 12-well tissue culture plates at the concentration of 2×10^4 cells per well, using DMEM/Ham's F-12 media containing 2.5% charcoal stripped FBS. The cells were counted on the initial day using a Z1 cell counter (Beckman Coulter, Fullerton, Calif.) and then were treated either with vehicle (DMSO) or the indicated triterpenoid compounds, each sample in triplicate. Every 48 hr, fresh medium was added along with the indicated compounds. The count of the cells was taken after 2, 4 and 6 days. The results are expressed as means±S.E for each set of triplicate.

PPARγ [2] = test: PPARγ transactivation (PPARγ-GAL4/pGAL4, PPRE3-luc) in Panc-28 cells; format: cell-based
Protocol: as §1

Panc-28 cells = test: Western blot of p21, p27, cyclin D1 in Panc-28 cells; format: cell-based, human; conditions: for effect of T007 on induction of p21 protein: 5 μM compound plus 10 μM T007; for cyclin D1 expression / p27 expression: Panc-28; for p21 protein expression: Panc-28, 24 hr
Protocol: SW480, HT-29, HCT-15 and Panc-28 (3×10^5) colon cancer cells were seeded in 6-well tissue culture plates in DMEM/Ham's F-12 medium containing 2.5% charcoal-stripped FBS. Protein is extracted from the cells treated either with vehicle or indicated compounds suspended for 24 hr except for caveolin-1 protein which was done for 72 hr. Samples were extracted in high salt buffer [50 mmol/L HEPES, 500 mmol/L NaCl, 1.5 mmol/L MgCl2, 1 mmol/L EGTA, 10% glycerol, and 1% Triton X-100 (pH 7.5), and 5 μL/mL protease inhibitor cocktail (Sigma-Aldrich)]. Samples were incubated at 100° C. for 2 min, separated on either 10% or 12% SDS-PAGE gels and then transferred to polyvinylidene difluoride membrane (PVDF; Bio-Rad, Hercules, Calif.). The PVDF membrane was blocked in 5% TBST-Blotto (10 mM Tris HCl, 150 mM NaCl, pH 8.0, 0.05% Triton X-100, and 5% nonfat dry milk) for about 30 min and was then incubated in fresh 5% TBST-Blotto with 1:1000 for caveolin-1 (Santa Cruz Biotechnology, Santa Cruz, Calif.), 1:1000 for p21 (BD Pharmingen, Frank lakes, NJ) and 1:10000 for β-actin (Sigma) primary antibody overnight with gentle shaking at 4° C. After washing with TBST for 10 min, the membrane was incubated with respective secondary antibody (1:5000) (Santa cruz, Calif.) in 5% TBST-Blotto for 3 hr. The membrane is then washed with TBST for 10 min, incubated with chemiluminiscence reagent from Perkin Elmer for one min and then exposed to Kodak X-OMAT AR autoradiography film (Eastman Kodak, Rochester, N.Y.).

CC(C)C1CCC2(C(=O)O)CCC3(C)C(CCC4C5(C)C=C(C#N)C(=O)C(C)(C)C5CCC43C)C12 (stereo not shown) [CN-BA]
activation of PPARγ-GAL4 chimera (PPARγ-GAL4 chimera): activates
KLF4 mRNA levels (HT-29 cells): induced KLF4 mRNA levels
effect of T007 on induction of KLF4 mRNA (HT-29 cells): did not inhibit
effect of T007 on induced caveolin-1 response (HCT-15 cells): inhibition of the induced caveolin-1 response
transactivation, PPARγ-GAL4/pGAL4 and PPRE3-luc (PPARγ [1]): induced transactivation
effect of PPARγ antagonist T007 on induced activities (PPARγ [1]): inhibited by T007
IC50 (SW480 cells): 1000 nM
luciferase activity, PPARγ-GAL4/pGAL4 and PPRE3-luc (PPARγ [2]; Panc-28): induced luciferase activity
effect of T007 on induced luciferase activity (PPARγ [2]; Panc-28, cotreatment with T007): inhibited
effect of T007 on induction of p21 protein (Panc-28 cells): significantly inhibited
cyclin D1 expression (Panc-28 cells): downregulation of cyclin D1
p27 expression (Panc-28 cells): induction of p27
p21 protein expression (Panc-28 cells): induce p21 protein expression

COC(=O)C12CCC(C(C)C)C1C1CCC3C4(C)C=C(C#N)C(=O)C(C)(C)C4CCC3(C)C1(C)CC2 (stereo not shown) [CN-BA-Me, Methyl 2-cyano-lup-1-en-3-oxo-20-oate]
KLF4 mRNA levels (HT-29 cells): induced KLF4 mRNA levels
effect of T007 on induction of KLF4 mRNA (HT-29 cells): did not inhibit
effect of T007 on induced caveolin-1 response (HCT-15 cells): inhibition of the induced caveolin-1 response
transactivation, PPARγ-GAL4/pGAL4 and PPRE3-luc (PPARγ [1]): induced transactivation
effect of PPARγ antagonist T007 on induced activities (PPARγ [1]): inhibited by T007
IC50 (SW480 cells): 1000 to 2500 nM
induction, PPARγ-GAL4/pGAL4 (PPARγ [2]; Panc-28): minimal induction
induction, PPRE3-luc (PPARγ [2]; Panc-28, data not shown): no induction
effect of T007 on induction of p21 protein (Panc-28 cells): significantly inhibited
cyclin D1 expression (Panc-28 cells): downregulation of cyclin D1
p27 expression (Panc-28 cells): induction of p27
p21 protein expression (Panc-28 cells): induce p21 protein expression

C=C(C)[C@@H]1CC[C@]2(C(=O)O)CC[C@]3(C)[C@H](CC[C@@H]4[C@@]5(C)CC[C@H](O)C(C)(C)[C@@H]5CC[C@]43C)[C@@H]12 [betulinic acid, Betulinic acid]
activation of PPARγ-GAL4 chimera (PPARγ-GAL4 chimera): inactive
effect of T007 on induction of KLF4 mRNA (HT-29 cells): did not inhibit
transactivation, PPARγ-GAL4/pGAL4 and PPRE3-luc (PPARγ [1]): inactive
IC50 (SW480 cells; Homo sapiens): 1000 to 5000 nM
luciferase activity, PPARγ-GAL4/pGAL4 and PPRE3-luc (PPARγ [2]; Panc-28): inactive
effect of T007 on induction of p21 protein (Panc-28 cells): not inhibited
